Experimental data from patent US20250235460A1, “COMBINATION THERAPY USING GLUCOSE-DEPENDENT INSULINOTROPIC POLYPEPTIDE RECEPTOR ANTAGONIST COMPOUNDS AND GLP-1 RECEPTOR AGONIST COMPOUNDS” (Pfizer Inc., priority 2024, published 2025).

Biological target: human GLP-1R (Homo sapiens, UniProt P43220, G168S)
Test: CHO GLP-1R Clone H6 cAMP HTRF agonist assay (Assay 1, high receptor density)
Type: cell-based
Details: for EC50: CHO GLP-1R clone H6, cAMP HTRF, geometric mean; for Emax: CHO GLP-1R clone H6, arithmetic mean, relative to saturating GLP-1 (1 μM), read-out: Assay 1 Emax (%)
Text: In Table 5 and Table 6, assay data are presented to two (2) significant figures as the geometric mean (EC50s) and arithmetic mean (Emax) based on the number of replicates listed (Number). A blank cell means there was no data for that Example or the Emax was not calculated.

human GLP-1R, sequence (P43220 24-463 G168S): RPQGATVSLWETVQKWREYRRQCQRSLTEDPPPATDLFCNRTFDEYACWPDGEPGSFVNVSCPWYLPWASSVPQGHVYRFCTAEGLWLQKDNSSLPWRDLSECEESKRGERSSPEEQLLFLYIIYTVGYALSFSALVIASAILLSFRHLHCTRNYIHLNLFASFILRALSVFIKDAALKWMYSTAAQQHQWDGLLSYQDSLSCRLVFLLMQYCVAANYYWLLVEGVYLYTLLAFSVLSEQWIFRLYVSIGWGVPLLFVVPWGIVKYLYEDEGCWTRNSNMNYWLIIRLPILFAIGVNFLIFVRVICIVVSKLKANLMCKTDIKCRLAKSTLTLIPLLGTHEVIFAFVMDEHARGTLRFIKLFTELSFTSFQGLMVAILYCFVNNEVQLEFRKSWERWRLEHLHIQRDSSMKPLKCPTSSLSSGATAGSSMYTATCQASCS

SMILES | EC50 | Emax
Cn1c(CN2CCC(c3cccc(OCc4ccc(C#N)cc4)n3)CC2)nc2ccc(C(=O)O)cc21 [Compound 234B, 2-[(4-{6-[(4-cyanobenzyl)oxy]pyridin-2-yl}piperidin-1-yl)methyl]-1-methyl-1H-benzimidazole-6-carboxylic acid] | 290 nM | 64%
C[C@H]1CN(c2cccc(OCc3ccc(C#N)cc3F)n2)CCN1Cc1nc2ccc(C(=O)O)cc2n1C[C@H]1CCOC1 [Compound 267B, 2-{[(2S)-4-{6-[(4-cyano-2-fluorobenzyl)oxy]pyridin-2-yl}-2-methylpiperazin-1-yl]methyl}-1-[(3R)-tetrahydrofuran-3-ylmethyl]-1H-benzimidazole-6-carboxylic acid] | > 19000 nM | 100%
Cn1cncc1Cn1c(CN2CCC(c3cccc(OCc4ccc(C#N)cc4F)n3)CC2)nc2ccc(C(=O)O)nc21 [Compound 274B, 2-[(4-{6-[(4-cyano-2-fluorobenzyl)oxy]pyridin-2-yl}piperidin-1-yl)methyl]-3-[(1-methyl-1H-imidazol-5-yl)methyl]-3H-imidazo[4,5-b]pyridine-5-carboxylic acid] | > 20000 nM | –
N#Cc1ccc(COc2cccc(C3CCN(Cc4nc5ccc(C(=O)O)cc5n4CC4CCO4)CC3)n2)c(F)c1 (centres unmarked) [Compound 109B, 2-[(4-{6-[(4-cyano-2-fluorobenzyl)oxy]pyridin-2-yl}piperidin-1-yl)methyl]-1-[oxetan-2-ylmethyl]-1H-benzimidazole-6-carboxylic acid] | – | 83%
O=C(O)c1ccc2nc(CN3CCC(c4cccc(OCc5ccc(Cl)cc5F)n4)CC3)n(CC3CCOCC3)c2c1 [Compound 324B, 2-[(4-{6-[(4-chloro-2-fluorobenzyl)oxy]pyridin-2-yl}piperidin-1-yl)methyl]-1-(tetrahydro-2H-pyran-4-ylmethyl)-1H-benzimidazole-6-carboxylic acid] | 1900 nM | 79%
Cc1nc(C(C)n2c(CN3CCC(c4cccc(OCc5ccc(Cl)cc5F)n4)CC3)nc3ccc(C(=O)O)cc32)n[nH]1 (centres unmarked) [Compound 342B, 2-[(4-{6-[(4-chloro-2-fluorobenzyl)oxy]pyridin-2-yl}piperidin-1-yl)methyl]-1-[1-(5-methyl-1H-1,2,4-triazol-3-yl)ethyl]-1H-benzimidazole-6-carboxylic acid] | 1300 nM | 42%
Cn1cc(Cn2c(CN3CCC(c4cccc(OCc5ccc(Cl)cc5F)n4)CC3)nc3ccc(C(=O)O)cc32)nn1 [Compound 311B, 2-[(4-{6-[(4-chloro-2-fluorobenzyl)oxy]pyridin-2-yl}piperidin-1-yl)methyl]-1-[(1-methyl-1H-1,2,3-triazol-4-yl)methyl]-1H-benzimidazole-6-carboxylic acid] | 350 nM | 71%
CN1CC(Cn2c(CN3CCC(c4cccc(OCc5ccc(Cl)cc5F)n4)CC3)nc3ccc(C(=O)O)cc32)CC1=O (centres unmarked) [Compound 317B, 2-[(4-{6-[(4-chloro-2-fluorobenzyl)oxy]pyridin-2-yl}piperidin-1-yl)methyl]-1-[(1-methyl-5-oxopyrrolidin-3-yl)methyl]-1H-benzimidazole-6-carboxylic acid] | 500 nM | 69%
O=C(O)c1ccc2nc(CN3CCC(c4cccc(OCc5ccc(Cl)cc5F)n4)CC3)n(CC3CCCCO3)c2c1 (centres unmarked) [Compound 323B, 2-[(4-{6-[(4-chloro-2-fluorobenzyl)oxy]pyridin-2-yl}piperidin-1-yl)methyl]-1-(tetrahydro-2H-pyran-2-ylmethyl)-1H-benzimidazole-6-carboxylic acid] | 1600 nM | 80%
CC1(Cn2c(CN3CCC(c4cccc(OCc5ccc(Cl)cc5F)n4)CC3)nc3ccc(C(=O)O)cc32)CCO1 (centres unmarked) [Compound 265B, 2-[(4-{6-[(4-chloro-2-fluorobenzyl)oxy]pyridin-2-yl}piperidin-1-yl)methyl]-1-[(2-methyloxetan-2-yl)methyl]-1H-benzimidazole-6-carboxylic acid] | > 15000 nM | 100%
O=C(O)c1ccc2nc(CN3CCC(c4cccc(OCc5ccc(Cl)cc5F)n4)CC3)n(CCN3CCCOC3=O)c2c1 [Compound 305B, 2-[(4-{6-[(4-chloro-2-fluorobenzyl)oxy]pyridin-2-yl}piperidin-1-yl)methyl]-1-[2-(2-oxo-1,3-oxazinan-3-yl)ethyl]-1H-benzimidazole-6-carboxylic acid] | 190 nM | 86%

Other lines, results leading:

EC50 | Emax | SMILES
1200 nM | 78% | COCCn1c(CN2CCC(c3cccc(OCc4ccc(C#N)cc4)n3)CC2)nc2ccc(C(=O)O)c(F)c21 [Compound 169B, 2-[(4-{6-[(4-cyanobenzyl)oxy]pyridin-2-yl}piperidin-1-yl)methyl]-7-fluoro-1-(2-methoxyethyl)-1H-benzimidazole-6-carboxylic acid]
> 20000 nM | – | O=C(O)c1ccc2nc(CN3CCC(c4cccc(OCc5ccc(Cl)cc5F)n4)CC3)n([C@H]3CCOC3)c2c1 [Compound 272B, 2-[(4-{6-[(4-chloro-2-fluorobenzyl)oxy]pyridin-2-yl}piperidin-1-yl)methyl]-1-[(3S)-tetrahydrofuran-3-yl]-1H-benzimidazole-6-carboxylic acid]
> 20000 nM | – | CCn1cncc1Cn1c(CN2CCC(c3cccc(OCc4ccc(C#N)cc4F)n3)CC2)nc2ccc(C(=O)O)nc21 [Compound 273B, 2-[(4-{6-[(4-cyano-2-fluorobenzyl)oxy]pyridin-2-yl}piperidin-1-yl)methyl]-3-[(1-ethyl-1H-imidazol-5-yl)methyl]-3H-imidazo[4,5-b]pyridine-5-carboxylic acid]
560 nM | 72% | COCc1cc(Cn2c(CN3CCC(c4cccc(OCc5ccc(Cl)cc5F)n4)CC3)nc3ccc(C(=O)O)cc32)[nH]n1 [Compound 337B, 2-[(4-{6-[(4-chloro-2-fluorobenzyl)oxy]pyridin-2-yl}piperidin-1-yl)methyl]-1-{[3-(methoxymethyl)-1H-pyrazol-5-yl]methyl}-1H-benzimidazole-6-carboxylic acid]
3100 nM | 51% | Cn1cnnc1CCn1c(CN2CCC(c3cccc(OCc4ccc(Cl)cc4F)n3)CC2)nc2ccc(C(=O)O)cc21 [Compound 328B, 2-[(4-{6-[(4-chloro-2-fluorobenzyl)oxy]pyridin-2-yl}piperidin-1-yl)methyl]-1-[2-(4-methyl-4H-1,2,4-triazol-3-yl)ethyl]-1H-benzimidazole-6-carboxylic acid]
– | 71% | N#Cc1ccc(COc2cccc(C3CCN(Cc4nc5ccc(C(=O)O)nc5n4Cc4ncco4)CC3)n2)c(F)c1 [Compound 214B, 2-[(4-{6-[(4-cyano-2-fluorobenzyl)oxy]pyridin-2-yl}piperidin-1-yl)methyl]-3-(1,3-oxazol-2-ylmethyl)-3H-imidazo[4,5-b]pyridine-5-carboxylic acid]
2700 nM | 85% | COCCn1c(CN2CCN(c3cccc(OCc4ccc(C#N)cc4F)n3)C[C@@H]2C)nc2ccc(C(=O)O)cc21 [Compound 173B, 2-{[(2S)-4-{6-[(4-cyano-2-fluorobenzyl)oxy]pyridin-2-yl}-2-methylpiperazin-1-yl]methyl}-1-(2-methoxyethyl)-1H-benzimidazole-6-carboxylic acid]
2500 nM | 71% | O=C(O)c1ccc2nc(CN3CCC(c4cccc(OCc5ccc(Cl)cc5F)n4)CC3)n(CC3CC(F)(F)C3)c2c1 [Compound 326B, 2-[(4-{6-[(4-chloro-2-fluorobenzyl)oxy]pyridin-2-yl}piperidin-1-yl)methyl]-1-[(3,3-difluorocyclobutyl)methyl]-1H-benzimidazole-6-carboxylic acid]
880 nM | – | COC1(Cn2c(CN3CCC(c4cccc(OCc5ccc(Cl)cc5F)n4)CC3)nc3ccc(C(=O)O)cc32)CCC1 [Compound 177B, 2-[(4-{6-[(4-chloro-2-fluorobenzyl)oxy]pyridin-2-yl}piperidin-1-yl)methyl]-1-[(1-methoxycyclobutyl)methyl]-1H-benzimidazole-6-carboxylic acid]
1700 nM | 82% | Cn1cncc1Cn1c(CN2CCC(c3cccc(OCc4ccc(F)cc4F)n3)CC2)nc2ccc(C(=O)O)cc21 [Compound 186B, 2-[(4-{6-[(2,4-difluorobenzyl)oxy]pyridin-2-yl}piperidin-1-yl)methyl]-1-[(1-methyl-1H-imidazol-5-yl)methyl]-1H-benzimidazole-6-carboxylic acid]
170 nM | 68% | COCCn1c(CN2CCC(c3cccc(OCc4ccccc4)n3)CC2)nc2ccc(C(=O)O)cc21 [Compound 181B, 2-({4-[6-(benzyloxy)pyridin-2-yl]piperidin-1-yl}methyl)-1-(2-methoxyethyl)-1H-benzimidazole-6-carboxylic acid]
1600 nM | 83% | COCCn1c(CN2CCN(c3nc(OCc4ccc(Cl)cc4F)ccc3F)CC2)nc2ccc(C(=O)O)cc21 [Compound 179B, 2-[(4-{6-[(4-chloro-2-fluorobenzyl)oxy]-3-fluoropyridin-2-yl}piperazin-1-yl)methyl]-1-(2-methoxyethyl)-1H-benzimidazole-6-carboxylic acid]
440 nM | 86% | O=C(O)c1ccc2nc(CN3CCC(c4cccc(OCc5ccc(Cl)cc5F)n4)CC3)n(CC3CCCOC3)c2c1 (centres unmarked) [Compound 315B, 2-[(4-{6-[(4-chloro-2-fluorobenzyl)oxy]pyridin-2-yl}piperidin-1-yl)methyl]-1-(tetrahydro-2H-pyran-3-ylmethyl)-1H-benzimidazole-6-carboxylic acid]
290 nM | 74% | Cn1ncnc1Cn1c(CN2CCC(c3cccc(OCc4ccc(Cl)cc4F)n3)CC2)nc2ccc(C(=O)O)cc21 [Compound 308B, 2-[(4-{6-[(4-chloro-2-fluorobenzyl)oxy]pyridin-2-yl}piperidin-1-yl)methyl]-1-[(1-methyl-1H-1,2,4-triazol-5-yl)methyl]-1H-benzimidazole-6-carboxylic acid]
